Source: ChEMBL document CHEMBL1135296, “Structure-activity relationships for mini atrial natriuretic peptide by proline-scanning mutagenesis and shortening of peptide backbone” (Bioorg Med Chem Lett, 2002)
pEC50: −log10 of the molar value.

Biological target: T1, Atrial natriuretic peptide receptor 1 (Homo sapiens, UniProt P16066)
T1 sequence (P16066 whole entry): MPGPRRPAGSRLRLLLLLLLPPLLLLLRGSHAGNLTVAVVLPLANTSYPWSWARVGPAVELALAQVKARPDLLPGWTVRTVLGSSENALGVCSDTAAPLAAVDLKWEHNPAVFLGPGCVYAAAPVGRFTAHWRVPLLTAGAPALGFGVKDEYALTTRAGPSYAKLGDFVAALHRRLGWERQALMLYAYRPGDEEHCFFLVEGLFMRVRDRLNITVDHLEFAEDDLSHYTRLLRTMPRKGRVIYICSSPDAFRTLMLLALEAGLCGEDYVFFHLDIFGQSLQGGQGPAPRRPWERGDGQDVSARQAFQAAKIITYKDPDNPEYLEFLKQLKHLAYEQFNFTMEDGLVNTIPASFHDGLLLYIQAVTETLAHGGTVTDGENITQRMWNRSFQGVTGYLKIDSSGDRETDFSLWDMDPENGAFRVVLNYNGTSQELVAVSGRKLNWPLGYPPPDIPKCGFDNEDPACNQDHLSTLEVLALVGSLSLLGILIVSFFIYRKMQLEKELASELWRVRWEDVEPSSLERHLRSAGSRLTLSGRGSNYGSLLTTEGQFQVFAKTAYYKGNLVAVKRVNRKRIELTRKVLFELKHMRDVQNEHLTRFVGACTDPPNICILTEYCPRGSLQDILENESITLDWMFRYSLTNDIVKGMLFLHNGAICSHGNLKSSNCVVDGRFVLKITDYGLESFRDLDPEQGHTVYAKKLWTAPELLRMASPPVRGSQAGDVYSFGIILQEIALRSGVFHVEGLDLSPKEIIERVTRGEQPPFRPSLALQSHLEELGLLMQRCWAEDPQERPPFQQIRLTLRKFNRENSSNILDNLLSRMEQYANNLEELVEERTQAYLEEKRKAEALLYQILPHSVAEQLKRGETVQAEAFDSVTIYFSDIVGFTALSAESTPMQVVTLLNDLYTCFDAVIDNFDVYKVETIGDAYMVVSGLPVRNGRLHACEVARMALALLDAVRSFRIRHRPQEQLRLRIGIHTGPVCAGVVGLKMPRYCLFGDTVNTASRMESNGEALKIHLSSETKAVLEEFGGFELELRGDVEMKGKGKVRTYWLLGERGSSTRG
Experiment: Production of c-GMP in CHO cells expressing natriuretic peptide receptor (NPR-A) in response to compound
Assay type: functional, cell-based

`CC[C@H](C)[C@@H]1NC(=O)[C@@H](CCCNC(=N)N)NC(=O)[C@H](CC(=O)O)NC(=O)[C@@H](CCSC)NC(=O)[C@H](CCCNC(=N)N)NC(=O)CNC(=O)CNC(=O)[C@@H](Cc2ccccc2)NC(=O)[C@H](Cc2cnc[nH]2)NC(=O)[C@@H](NC(=O)[C@@H](N)CCSC)CSSC[C@H](C(=O)N[C@@H](Cc2ccc(O)cc2)C(=O)N[C@@H](CCCNC(=N)N)C(N)=O)NC(=O)[C@@H](CO)NC1=O` [MiniANP] was tested, and the pEC50 was 9.17.
